Experiments:
[1] = test system: Escherichia coli, CECT 515; test: agar diffusion, inhibition halo; type: cell-based
Procedure: (§1) In order to evaluate the antimicrobial activity the agar diffusion technique with cellulose discs of 6 mm in diameter impregnated with the different active ingredient testing doses was used.
(§2) Antibacterial capacity was assessed against suspensions of 10^6 cells/ml, prepared from pure young cultures of each one of the strains to be tested. The culture medium used was Müller-Hinton medium (Merck).
(§3) After incubating the culture dishes inoculated with the different organisms at the corresponding temperatures, the microbial inhibition halos that appeared were measured, and said measurement includes the 6 mm diameter of the cellulose discs.

[2] = test system: Listeria monocytogenes, ATCC 15313; test: agar diffusion, inhibition halo; type: cell-based
Procedure: as §1, §2, §3

[3] = test system: Bacillus cereus, CECT 1178; test: agar diffusion, inhibition halo; type: cell-based
Procedure: as §1, §2, §3

[4] = test system: Micrococcus luteus, isolated from a spiced sausage; test: agar diffusion, inhibition halo; type: cell-based
Procedure: as §1, §2, §3

[5] = test system: Bacillus megaterium, ATCC 33085; test: agar diffusion, inhibition halo; type: cell-based
Procedure: as §1, §2, §3

[6] = test system: Salmonella; test: microbiological quality of treated hamburgers and fresh sausage: Salmonella study
Procedure: (§4) The tests were conducted on meat products such as hamburgers and fresh sausage at different doses, with and without the usual preservatives (sulfites).
(§5) Each sample is prepared in quintuplicate and microbiological quality control over time is conducted, a triplicate of each sample being performed.
The systematic testing used consisted of three steps: • a) Pre-enrichment in non-selective liquid medium. • b) Enrichment in selective liquid medium. • c) Differential isolation on selective solid means. a) Non-Selective Pre-Enrichment
The medium of choice is buffered peptone water.
25 g of the product to be analyzed are aseptically weighed and diluted in 225 mL of buffered peptone water to obtain a 1:10 dilution. It is mixed well and taken to be incubated at 37° C. for 16-20 hours.
The pre-enrichment culture is stirred and 10 mL thereof are taken with a sterile pipette, seeding it onto 100 mL of selenite-cysteine broth (Merck), incubating it at 37° C. for 18-24 hours.
From the culture obtained in the selective liquid medium, selenite-cysteine broth, seeding is performed on the second dish, in duplicate and without overloading the loop, on xylose lysine deoxycholate (XLD, Merck) agar, Rambach agar (Merck), and SS agar (Merck).
All the seeded dishes are incubated in an oven at 37° C. for 24-48 hours.
The test is positive when typical colonies are detected in at least two of the four mediums, which are confirmed with supplementary biochemical tests.
(§6) Two different raw meat products (sausages and hamburgers) treated with different allicin doses are prepared. • The used testing doses were: 25, 50 and 100 ppm.
(§7) Five samples of each product (hamburger and sausage) are prepared, each one of them being analyzed in triplicate.
(§8) The microbiological parameters analyzed were as follows: • Total mesophilic aerobes • Coliforms • Escherichia coli • Salmonella (presence/absence in 25 g) • Said parameters were analyzed at different times: • 0 days • 4 days • 7 days • The sample references resulted as follows: […]

[7] = test system: Aspergillus niger, CECT 2700; test: agar diffusion, inhibition halo; type: cell-based
Summary of the method: (§9)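 Halo diameter, 6 mm disc included, is the read-out. Medium 2% Sabouraud-glucose; 6 mm cellulose discs loaded with the active at the test doses; incubation at the organism-specific temperature.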

[8] = test system: Penicillium sp, isolated from cheese; test: agar diffusion, inhibition halo; type: cell-based
Summary of the method: as §9

[9] = test system: Aspergillus terreus, isolated from the environment of the cheese maturation chamber; test: agar diffusion, inhibition halo; type: cell-based
Summary of the method: as §9

[10] = test system: Candida krusei, isolated from cheese; test: agar diffusion, inhibition halo; type: cell-based
Summary of the method: as §9

[11] = test system: Candida parapsilosis, isolated from cheese; test: agar diffusion, inhibition halo; type: cell-based
Summary of the method: as §9

[12] = test system: Saccharomyces cerevisiae, CECT 1324; test: agar diffusion, inhibition halo; type: cell-based
Summary of the method: as §9

[13] = test system: Candida magnoliae, isolated from cheese; test: agar diffusion, inhibition halo; type: cell-based
Summary of the method: as §9

[14] = test system: Total mesophilic aerobes; test: microbiological quality of treated hamburgers and fresh sausage: total mesophilic aerobe count
Procedure: as §4, §5
The method used to determine the number of germs per gram was the dish count number, starting from serial decimal dilutions of the sample and using the surface seeding technique.
The culture medium used was nutrient agar (Merck PCA) prepared on Petri dishes on which, from the serial decimal dilutions of the sample (from −1 . . . to −6 in Merck triptone soy broth or TSB), 0.1 mL of each one of the dilutions was transferred.
Dish incubation temperature was 31±1° C.
The final result is expressed as the total microorganism count per gram of sample (said count is performed in the dilutions in which between 30-300 colonies/dish are detected).
as §6, §7, §8

[15] = hamburger, 25 ppm of allicin (H-1), t = 0 days
[16] = hamburger, 25 ppm of allicin (H-1), t = 4 days
[17] = hamburger, 50 ppm of allicin (H-2), t = 0 days
[18] = hamburger, 50 ppm of allicin (H-2), t = 4 days
[19] = hamburger, 100 ppm of allicin (H-3), t = 0 days
[20] = hamburger, 100 ppm of allicin (H-3), t = 4 days
[21] = sausage, 25 ppm of allicin (S-1), t = 0 days
[22] = sausage, 25 ppm of allicin (S-1), t = 4 days
[23] = sausage, 50 ppm of allicin (S-2), t = 0 days
[24] = sausage, 50 ppm of allicin (S-2), t = 4 days
[25] = sausage, 100 ppm of allicin (S-3), t = 0 days
[26] = sausage, 100 ppm of allicin (S-3), t = 4 days

C=CCS[S+]([O-])CC=C (stereo not shown) [Allicin, allyl allylthiosulfinate]
inhibition halo diameter ([1]; 25 ppm): 14 mm | inhibition halo diameter ([1]; 50 ppm): 17 mm | inhibition halo diameter ([1]; 100 ppm): 21 mm | inhibition halo diameter ([2]; 25 ppm): 18 mm | inhibition halo diameter ([2]; 50 ppm): 24 mm | inhibition halo diameter ([2]; 100 ppm): 30 mm | inhibition halo diameter ([3]; 25 ppm): 22 mm | inhibition halo diameter ([3]; 50 ppm): 29 mm | inhibition halo diameter ([3]; 100 ppm): 35 mm | inhibition halo diameter ([4]; 25 ppm): 19 mm | inhibition halo diameter ([4]; 50 ppm): 25 mm | inhibition halo diameter ([4]; 100 ppm): 32 mm | inhibition halo diameter ([5]; 25 ppm): 23 mm | inhibition halo diameter ([5]; 50 ppm): 27 mm | inhibition halo diameter ([5]; 100 ppm): 34 mm | Salmonella growth ([6]; allicin doses of 50 and 100 ppm): able to inhibit Salmonella growth | Salmonella (in 25 g) [6, 15]: presence | Salmonella (in 25 g) [6, 16]: presence | Salmonella (in 25 g) [6, 17]: presence | Salmonella (in 25 g) [6, 18]: presence | Salmonella (in 25 g) [6, 19]: presence | Salmonella (in 25 g) [6, 20]: presence | Salmonella (in 25 g) [6, 21]: absence | Salmonella (in 25 g) [6, 22]: presence | Salmonella (in 25 g) [6, 23]: absence | Salmonella (in 25 g) [6, 24]: presence | Salmonella (in 25 g) [6, 25]: absence | Salmonella (in 25 g) [6, 26]: presence | inhibition halo diameter ([7]; 25 ppm): 10 mm | inhibition halo diameter ([7]; 50 ppm): 13 mm | inhibition halo diameter ([7]; 100 ppm): 19 mm | inhibition halo diameter ([8]; 25 ppm): 22 mm | inhibition halo diameter ([8]; 50 ppm): 26 mm | inhibition halo diameter ([8]; 100 ppm): 34 mm | inhibition halo diameter ([9]; 25 ppm): 12 mm | inhibition halo diameter ([9]; 50 ppm): 22 mm | inhibition halo diameter ([9]; 100 ppm): 25 mm | inhibition halo diameter ([10]; 25 ppm): 14 mm | inhibition halo diameter ([10]; 50 ppm): 18 mm | inhibition halo diameter ([10]; 100 ppm): 29 mm | inhibition halo diameter ([11]; 50 ppm): 14 mm | inhibition halo diameter ([11]; 100 ppm): 17 mm | inhibition halo diameter ([12]; 25 ppm): 28 mm | inhibition halo diameter ([12]; 50 ppm): 32 mm | inhibition halo diameter ([12]; 100 ppm): 44 mm | inhibition halo diameter ([13]; 25 ppm): 22 mm | inhibition halo diameter ([13]; 50 ppm): 30 mm | inhibition halo diameter ([13]; 100 ppm): 38 mm | reduction of total mesophilic aerobes with respect to untreated controls ([14]; allicin 100 ppm, all sausage samples and hamburgers, maintained from 0 to 4 days): reduction of one logarithmic unit | Total aerobes [14, 15]: 2.17 × 10^6 cfu/g | Total aerobes [14, 16]: 1.56 × 10^8 cfu/g | Total aerobes [14, 17]: 9.01 × 10^5 cfu/g | Total aerobes [14, 18]: 6.23 × 10^7 cfu/g | Total aerobes [14, 19]: 4.08 × 10^5 cfu/g | Total aerobes [14, 20]: 3.17 × 10^7 cfu/g | Total aerobes [14, 21]: 2.24 × 10^5 cfu/g | Total aerobes [14, 22]: 3.08 × 10^6 cfu/g | Total aerobes [14, 23]: 8.99 × 10^4 cfu/g | Total aerobes [14, 24]: 2.72 × 10^6 cfu/g | Total aerobes [14, 25]: 6.06 × 10^4 cfu/g | Total aerobes [14, 26]: 3.10 × 10^5 cfu/g

Source: patent publication US20070160725A1, “Use of extracts and compounds of allium-genus plants as preservatives in the food and agri-food industries” (MOUSALA, S., L., priority 2004, published 2007)
